Assays:
Vasopressin V1a receptor = Vasopressin V1a receptor (Homo sapiens, UniProt P37288)
Motilin receptor = Motilin receptor (Homo sapiens, UniProt O43193)
[1] = target: Glutamate receptor ionotropic, NMDA 1 (Rattus norvegicus, UniProt P35439)
Glucocorticoid receptor = target: T1, Glucocorticoid receptor (Homo sapiens, UniProt P04150)
T1 sequence (P04150 whole entry): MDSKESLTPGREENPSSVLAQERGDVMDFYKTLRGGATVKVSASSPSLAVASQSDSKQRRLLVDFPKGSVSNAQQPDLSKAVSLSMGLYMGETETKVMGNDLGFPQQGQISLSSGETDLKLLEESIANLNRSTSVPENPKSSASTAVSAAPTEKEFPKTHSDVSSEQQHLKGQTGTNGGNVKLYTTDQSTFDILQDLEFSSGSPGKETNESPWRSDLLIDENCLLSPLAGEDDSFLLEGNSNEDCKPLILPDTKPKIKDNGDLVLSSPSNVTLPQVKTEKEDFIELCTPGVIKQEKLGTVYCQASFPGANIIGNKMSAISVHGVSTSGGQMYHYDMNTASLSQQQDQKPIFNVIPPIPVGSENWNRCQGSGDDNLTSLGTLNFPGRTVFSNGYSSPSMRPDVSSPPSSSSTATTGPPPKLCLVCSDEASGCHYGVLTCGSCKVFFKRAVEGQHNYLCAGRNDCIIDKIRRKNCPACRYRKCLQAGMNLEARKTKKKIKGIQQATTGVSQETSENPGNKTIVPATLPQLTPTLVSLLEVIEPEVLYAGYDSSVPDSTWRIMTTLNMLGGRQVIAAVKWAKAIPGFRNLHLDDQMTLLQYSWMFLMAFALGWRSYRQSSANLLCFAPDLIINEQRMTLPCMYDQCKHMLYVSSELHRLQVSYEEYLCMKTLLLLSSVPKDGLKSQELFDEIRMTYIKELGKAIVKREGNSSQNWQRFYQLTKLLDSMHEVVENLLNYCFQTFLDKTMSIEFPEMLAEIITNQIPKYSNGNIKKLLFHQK

[2] = target: T2, Neuropeptide Y receptor type 1 (Homo sapiens, UniProt P25929)
T2 sequence (P25929 whole entry): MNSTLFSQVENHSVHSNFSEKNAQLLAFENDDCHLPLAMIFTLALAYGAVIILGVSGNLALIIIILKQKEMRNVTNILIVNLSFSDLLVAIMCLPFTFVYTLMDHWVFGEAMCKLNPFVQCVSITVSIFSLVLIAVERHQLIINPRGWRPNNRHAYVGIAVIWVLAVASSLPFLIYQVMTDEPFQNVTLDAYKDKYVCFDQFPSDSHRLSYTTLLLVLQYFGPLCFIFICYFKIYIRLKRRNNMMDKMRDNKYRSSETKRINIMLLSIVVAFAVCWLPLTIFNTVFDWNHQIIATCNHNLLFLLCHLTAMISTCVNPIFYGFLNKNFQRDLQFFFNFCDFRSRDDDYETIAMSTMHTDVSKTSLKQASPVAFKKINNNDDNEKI

[3] = target: T3, Equilibrative nucleoside transporter 1 (Homo sapiens, UniProt Q99808)
T3 sequence (Q99808 whole entry): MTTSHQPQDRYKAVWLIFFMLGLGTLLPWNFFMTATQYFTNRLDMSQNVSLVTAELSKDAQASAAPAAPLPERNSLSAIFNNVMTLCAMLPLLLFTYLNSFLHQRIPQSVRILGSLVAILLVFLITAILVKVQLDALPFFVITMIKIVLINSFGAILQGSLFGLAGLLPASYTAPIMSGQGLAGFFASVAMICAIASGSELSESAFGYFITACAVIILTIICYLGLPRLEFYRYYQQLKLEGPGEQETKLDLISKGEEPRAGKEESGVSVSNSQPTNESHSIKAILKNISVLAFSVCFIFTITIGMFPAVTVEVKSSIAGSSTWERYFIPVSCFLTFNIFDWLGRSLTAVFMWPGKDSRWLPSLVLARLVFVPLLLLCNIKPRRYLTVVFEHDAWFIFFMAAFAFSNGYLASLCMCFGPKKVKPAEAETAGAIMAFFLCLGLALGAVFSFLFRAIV

[4] = target: Voltage-dependent L-type calcium channel subunit alpha-1C (Rattus norvegicus, UniProt P22002); format: functional
[5] = target: Delta-type opioid receptor (Homo sapiens, UniProt P41143)
[6] = target: T4, Type-1 angiotensin II receptor (Homo sapiens, UniProt P30556)
T4 sequence (P30556 whole entry): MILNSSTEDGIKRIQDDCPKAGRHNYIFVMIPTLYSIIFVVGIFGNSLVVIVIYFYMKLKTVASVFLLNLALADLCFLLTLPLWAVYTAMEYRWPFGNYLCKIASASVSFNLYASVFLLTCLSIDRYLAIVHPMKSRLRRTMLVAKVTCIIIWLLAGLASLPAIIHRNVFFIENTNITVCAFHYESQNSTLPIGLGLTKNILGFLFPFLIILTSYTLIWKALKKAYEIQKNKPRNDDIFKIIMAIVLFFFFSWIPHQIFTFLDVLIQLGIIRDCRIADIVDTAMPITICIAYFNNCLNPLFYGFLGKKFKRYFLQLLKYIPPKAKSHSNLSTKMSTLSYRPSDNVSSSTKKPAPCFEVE

[7] = target: Sodium-dependent serotonin transporter (Homo sapiens, UniProt P31645)
[8] = target: 5-hydroxytryptamine receptor 2B (Homo sapiens, UniProt P41595); format: functional, cell-based
[9] = target: Voltage-gated inwardly rectifying potassium channel KCNH2 (Homo sapiens, UniProt Q12809); format: functional; settings: read-out: AC50
Endothelin-1 receptor = target: T5, Endothelin-1 receptor (Homo sapiens, UniProt P25101)
T5 sequence (P25101 whole entry): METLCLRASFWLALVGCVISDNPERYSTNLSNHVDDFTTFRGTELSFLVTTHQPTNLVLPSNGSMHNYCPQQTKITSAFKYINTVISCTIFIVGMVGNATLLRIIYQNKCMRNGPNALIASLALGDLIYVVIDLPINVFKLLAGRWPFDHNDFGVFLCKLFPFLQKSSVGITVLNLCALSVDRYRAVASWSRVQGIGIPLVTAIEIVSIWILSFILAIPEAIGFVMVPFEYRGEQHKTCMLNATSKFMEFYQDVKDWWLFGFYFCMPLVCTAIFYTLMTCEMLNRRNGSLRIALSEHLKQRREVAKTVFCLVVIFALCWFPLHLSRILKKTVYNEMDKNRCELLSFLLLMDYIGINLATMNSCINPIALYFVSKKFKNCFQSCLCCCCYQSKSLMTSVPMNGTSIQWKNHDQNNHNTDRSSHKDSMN

[10] = target: 5-hydroxytryptamine receptor 2A (Homo sapiens, UniProt P28223); format: functional, cell-based
Further: assay procedure not described here.

Vasopressin V1a receptor, sequence (P37288 whole entry): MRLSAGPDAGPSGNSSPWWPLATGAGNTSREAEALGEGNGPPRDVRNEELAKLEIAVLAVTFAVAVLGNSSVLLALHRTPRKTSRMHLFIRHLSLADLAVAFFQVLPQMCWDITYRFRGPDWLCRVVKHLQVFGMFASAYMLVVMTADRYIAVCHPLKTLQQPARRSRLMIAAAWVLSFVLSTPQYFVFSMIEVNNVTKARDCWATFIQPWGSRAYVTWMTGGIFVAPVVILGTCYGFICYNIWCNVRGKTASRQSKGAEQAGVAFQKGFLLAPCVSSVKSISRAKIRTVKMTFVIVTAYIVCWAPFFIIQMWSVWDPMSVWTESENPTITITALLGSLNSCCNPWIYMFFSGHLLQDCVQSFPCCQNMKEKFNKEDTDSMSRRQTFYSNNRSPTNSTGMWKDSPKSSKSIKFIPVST
Motilin receptor, sequence (O43193 whole entry): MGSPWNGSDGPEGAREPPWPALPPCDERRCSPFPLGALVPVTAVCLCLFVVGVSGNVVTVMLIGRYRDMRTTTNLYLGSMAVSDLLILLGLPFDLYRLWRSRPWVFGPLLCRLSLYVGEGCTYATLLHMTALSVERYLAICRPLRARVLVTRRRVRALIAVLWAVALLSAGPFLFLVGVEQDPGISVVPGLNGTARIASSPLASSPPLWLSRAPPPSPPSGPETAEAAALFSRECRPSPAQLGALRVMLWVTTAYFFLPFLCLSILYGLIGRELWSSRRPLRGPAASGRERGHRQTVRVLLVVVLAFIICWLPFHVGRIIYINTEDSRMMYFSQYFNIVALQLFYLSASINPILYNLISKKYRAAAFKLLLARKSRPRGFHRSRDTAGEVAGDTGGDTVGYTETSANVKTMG
Delta-type opioid receptor, sequence (P41143 whole entry): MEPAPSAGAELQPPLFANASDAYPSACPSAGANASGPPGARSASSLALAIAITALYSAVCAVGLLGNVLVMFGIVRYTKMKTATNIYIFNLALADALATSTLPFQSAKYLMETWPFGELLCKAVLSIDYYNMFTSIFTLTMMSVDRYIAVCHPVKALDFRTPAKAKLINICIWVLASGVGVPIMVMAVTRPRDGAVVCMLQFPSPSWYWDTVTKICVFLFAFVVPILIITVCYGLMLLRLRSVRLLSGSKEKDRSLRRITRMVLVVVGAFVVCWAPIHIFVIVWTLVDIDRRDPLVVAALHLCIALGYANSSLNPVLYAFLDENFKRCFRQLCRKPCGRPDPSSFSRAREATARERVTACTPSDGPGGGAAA
Voltage-dependent L-type calcium channel subunit alpha-1C, sequence (P22002 whole entry): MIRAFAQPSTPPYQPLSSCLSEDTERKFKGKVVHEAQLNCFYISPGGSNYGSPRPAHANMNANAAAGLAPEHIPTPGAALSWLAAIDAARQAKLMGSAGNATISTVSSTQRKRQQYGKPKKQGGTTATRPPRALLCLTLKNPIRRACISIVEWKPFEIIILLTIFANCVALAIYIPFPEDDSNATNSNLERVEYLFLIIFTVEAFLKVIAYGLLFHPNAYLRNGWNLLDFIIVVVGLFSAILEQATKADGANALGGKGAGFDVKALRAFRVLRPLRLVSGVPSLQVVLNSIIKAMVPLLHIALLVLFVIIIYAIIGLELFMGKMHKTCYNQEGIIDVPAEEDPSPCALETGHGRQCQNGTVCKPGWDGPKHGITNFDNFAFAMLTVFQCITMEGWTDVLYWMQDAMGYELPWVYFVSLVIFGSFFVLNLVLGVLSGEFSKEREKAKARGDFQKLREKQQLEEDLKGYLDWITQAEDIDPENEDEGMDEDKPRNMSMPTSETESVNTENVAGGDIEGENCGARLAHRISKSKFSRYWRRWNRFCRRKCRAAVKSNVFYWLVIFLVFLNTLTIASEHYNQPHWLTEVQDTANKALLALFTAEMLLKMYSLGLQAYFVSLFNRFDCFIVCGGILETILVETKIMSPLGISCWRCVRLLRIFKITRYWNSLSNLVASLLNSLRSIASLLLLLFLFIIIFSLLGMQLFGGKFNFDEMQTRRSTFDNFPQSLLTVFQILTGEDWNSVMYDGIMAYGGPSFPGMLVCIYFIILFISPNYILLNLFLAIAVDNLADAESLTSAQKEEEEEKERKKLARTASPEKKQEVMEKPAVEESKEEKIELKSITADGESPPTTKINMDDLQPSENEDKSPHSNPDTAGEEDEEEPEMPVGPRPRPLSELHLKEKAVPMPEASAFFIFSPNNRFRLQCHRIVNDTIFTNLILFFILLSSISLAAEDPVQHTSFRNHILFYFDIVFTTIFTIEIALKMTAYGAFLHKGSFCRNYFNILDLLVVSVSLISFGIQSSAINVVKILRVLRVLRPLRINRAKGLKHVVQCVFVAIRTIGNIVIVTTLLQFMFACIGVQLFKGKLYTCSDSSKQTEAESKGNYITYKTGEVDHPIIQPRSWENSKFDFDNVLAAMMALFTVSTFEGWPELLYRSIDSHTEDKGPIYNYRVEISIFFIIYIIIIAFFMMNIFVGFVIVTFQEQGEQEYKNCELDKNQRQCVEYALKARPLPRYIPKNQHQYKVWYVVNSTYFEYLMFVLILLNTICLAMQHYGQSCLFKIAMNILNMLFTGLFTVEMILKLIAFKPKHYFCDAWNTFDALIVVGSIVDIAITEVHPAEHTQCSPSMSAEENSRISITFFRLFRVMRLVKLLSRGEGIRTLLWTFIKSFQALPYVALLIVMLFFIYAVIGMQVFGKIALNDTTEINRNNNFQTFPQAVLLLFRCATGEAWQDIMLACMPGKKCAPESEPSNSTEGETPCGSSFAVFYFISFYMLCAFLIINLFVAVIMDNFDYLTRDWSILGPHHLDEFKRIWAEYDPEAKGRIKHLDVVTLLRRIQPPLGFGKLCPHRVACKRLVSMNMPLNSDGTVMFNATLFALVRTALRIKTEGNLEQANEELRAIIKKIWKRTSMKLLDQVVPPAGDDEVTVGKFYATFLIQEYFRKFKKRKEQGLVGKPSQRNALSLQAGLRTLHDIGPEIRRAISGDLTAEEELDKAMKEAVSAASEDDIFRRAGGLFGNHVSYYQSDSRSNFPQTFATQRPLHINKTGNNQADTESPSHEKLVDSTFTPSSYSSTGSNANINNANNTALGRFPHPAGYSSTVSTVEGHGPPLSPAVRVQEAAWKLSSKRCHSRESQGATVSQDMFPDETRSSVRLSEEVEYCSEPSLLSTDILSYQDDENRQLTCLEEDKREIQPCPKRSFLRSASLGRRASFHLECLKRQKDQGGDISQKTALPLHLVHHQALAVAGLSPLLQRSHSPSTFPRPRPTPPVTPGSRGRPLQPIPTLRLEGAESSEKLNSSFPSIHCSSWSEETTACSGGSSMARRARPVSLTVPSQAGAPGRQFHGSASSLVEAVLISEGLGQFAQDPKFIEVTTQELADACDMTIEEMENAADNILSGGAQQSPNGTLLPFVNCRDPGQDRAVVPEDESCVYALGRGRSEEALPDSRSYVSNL
5-hydroxytryptamine receptor 2B, sequence (P41595 whole entry): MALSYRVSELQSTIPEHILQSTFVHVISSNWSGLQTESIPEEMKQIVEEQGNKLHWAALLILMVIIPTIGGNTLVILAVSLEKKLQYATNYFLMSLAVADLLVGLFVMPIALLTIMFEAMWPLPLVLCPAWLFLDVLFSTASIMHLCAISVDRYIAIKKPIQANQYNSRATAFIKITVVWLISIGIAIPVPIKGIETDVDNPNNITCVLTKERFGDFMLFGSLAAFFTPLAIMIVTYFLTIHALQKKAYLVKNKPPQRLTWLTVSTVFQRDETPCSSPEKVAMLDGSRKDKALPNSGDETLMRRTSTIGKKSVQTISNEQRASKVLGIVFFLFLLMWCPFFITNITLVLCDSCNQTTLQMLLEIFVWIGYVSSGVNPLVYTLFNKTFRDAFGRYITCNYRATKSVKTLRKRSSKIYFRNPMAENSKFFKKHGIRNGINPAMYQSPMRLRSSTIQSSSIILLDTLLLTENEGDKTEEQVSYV
Sodium-dependent serotonin transporter, sequence (P31645 whole entry): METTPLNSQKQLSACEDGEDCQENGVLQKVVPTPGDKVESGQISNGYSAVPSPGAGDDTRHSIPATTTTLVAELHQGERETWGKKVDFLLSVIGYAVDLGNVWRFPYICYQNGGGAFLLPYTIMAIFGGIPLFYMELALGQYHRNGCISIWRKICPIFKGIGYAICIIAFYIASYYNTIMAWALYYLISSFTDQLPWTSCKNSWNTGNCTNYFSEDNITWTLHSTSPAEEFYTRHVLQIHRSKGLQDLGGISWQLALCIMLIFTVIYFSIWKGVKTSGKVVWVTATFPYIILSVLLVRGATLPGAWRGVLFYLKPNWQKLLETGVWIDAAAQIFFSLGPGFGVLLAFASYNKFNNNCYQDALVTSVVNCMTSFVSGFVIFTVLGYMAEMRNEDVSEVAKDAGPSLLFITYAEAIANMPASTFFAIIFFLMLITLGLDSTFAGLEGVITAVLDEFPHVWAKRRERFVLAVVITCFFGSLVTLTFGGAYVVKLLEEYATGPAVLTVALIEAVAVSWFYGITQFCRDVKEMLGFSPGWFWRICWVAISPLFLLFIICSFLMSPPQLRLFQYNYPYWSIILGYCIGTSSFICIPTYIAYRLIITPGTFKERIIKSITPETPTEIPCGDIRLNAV
5-hydroxytryptamine receptor 2A, sequence (P28223 whole entry): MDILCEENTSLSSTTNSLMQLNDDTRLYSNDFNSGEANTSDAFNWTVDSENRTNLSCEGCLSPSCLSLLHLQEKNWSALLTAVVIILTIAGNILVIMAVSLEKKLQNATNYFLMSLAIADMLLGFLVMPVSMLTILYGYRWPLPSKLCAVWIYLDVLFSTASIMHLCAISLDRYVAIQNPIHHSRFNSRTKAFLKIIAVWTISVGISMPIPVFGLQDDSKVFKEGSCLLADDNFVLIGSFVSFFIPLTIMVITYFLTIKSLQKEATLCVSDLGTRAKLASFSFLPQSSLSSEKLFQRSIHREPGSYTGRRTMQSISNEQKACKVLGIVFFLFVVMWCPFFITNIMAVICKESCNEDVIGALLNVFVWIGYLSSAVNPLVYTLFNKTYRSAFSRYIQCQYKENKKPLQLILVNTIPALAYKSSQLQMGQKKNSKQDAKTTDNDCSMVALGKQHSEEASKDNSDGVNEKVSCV

Row | Structure (SMILES) | AC50 (Vasopressin V1a receptor) [µM] | AC50 (Motilin receptor) [µM] | AC50 [1] [µM] | AC50 (Glucocorticoid receptor) [µM] | AC50 [2] [µM] | AC50 [3] [µM] | AC50 [4] [µM] | AC50 [5] [µM] | AC50 [6] [µM] | AC50 [7] [µM] | AC50 [8] [µM] | AC50 [9] [µM] | AC50 (Endothelin-1 receptor) [µM] | AC50 [10] [µM]
1 | CC#CCn1c(N2CCC[C@@H](N)C2)nc2c1c(=O)n(Cc1nc(C)c3ccccc3n1)c(=O)n2C [LINAGLIPTIN] | > 30 | > 10 | > 10 | > 30 | > 30 | > 30 | > 10 | > 10 | > 30 | > 30 | > 10 |  |  | 
2 | COc1cccc2c1C(=O)c1c(O)c3c(c(O)c1C2=O)C[C@@](O)(C(C)=O)C[C@@H]3O[C@H]1C[C@H](N)[C@H](O)[C@H](C)O1 [DAUNORUBICIN] | 3.6 | > 30 | > 30 | 0.11 | > 10 | 14.3 | > 30 | 16.2 | > 30 |  |  | > 30 | > 30 | 
3 | COC1=C(OC)C(=O)C(CCCCCCCCCCO)=C(C)C1=O [IDEBENONE] | > 10 | > 10 | > 10 | > 30 | > 30 | 21.9 | > 10 | > 10 | > 30 |  | > 10 | > 30 | > 30 | 
4 | C[C@@H]1C[C@H]2[C@@H]3C[C@H](F)C4=CC(=O)C=C[C@]4(C)[C@@]3(F)[C@@H](O)C[C@]2(C)[C@H]1C(=O)CO [DIFLUCORTOLONE] |  |  |  |  |  |  |  | > 30 |  | > 30 | > 30 |  |  | > 30
5 | Cc1cc2nc3c(=O)[nH]c(=O)nc-3n(C[C@H](O)[C@H](O)[C@H](O)COP(=O)(O)O)c2cc1C [RIBOFLAVIN 5'-PHOSPHATE] | > 30 | > 30 | > 30 | 19 | > 30 | > 30 | 15 | > 30 | > 30 | > 30 |  |  | > 30 | 
6 | CC(=O)OCC(CCn1cnc2cnc(N)nc21)COC(C)=O [FAMCICLOVIR] | > 10 | > 10 | > 10 | > 30 | > 30 | > 30 | > 10 | > 30 | > 30 |  | > 10 | > 30 | > 30 | 
7 | C=CC1=C(C(=O)O)N2C(=O)[C@@H](NC(=O)/C(=N\OCC(=O)O)c3csc(N)n3)[C@H]2SC1 [CEFIXIME] | > 30 | > 30 |  |  | > 30 | > 30 |  |  | > 30 | > 30 | > 30 | > 30 | > 30 | > 30
8 | O=C1CN=C(c2ccccc2)c2cc(Cl)ccc2N1 [NORDAZEPAM] | > 10 | > 10 | > 10 | > 30 | > 30 | > 30 | > 10 | > 10 | > 30 | > 10 | > 10 |  | > 30 | 
